Assay results taken from PubChem BioAssay (NCI).
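Assay format: 96-well plates, 48-hour exposure. At the GI50, growth is halved. At the TGI there is no net growth.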

Key:
Assay in all cases: inhibition of tumour cell growth, NCI panel, 48 h
[1] = test system: NCI-H460 lung
[2] = test system: NCI-H23 lung
[3] = test system: OVCAR-5 ovarian
[4] = test system: SF-539 CNS
[5] = test system: RXF 393 renal
[6] = test system: MOLT-4 leukemia
[7] = test system: KM12 colon
[8] = test system: 786-0 renal
[9] = test system: OVCAR-4 ovarian
[10] = test system: MALME-3M melanoma

Compound	TGI [1]	TGI [2]	TGI [3]	TGI [4]	TGI [5]	TGI [6]	TGI [7]	TGI [8]	TGI [9]	TGI [10]	GI50 [1]	GI50 [2]	GI50 [3]	GI50 [4]	GI50 [5]	GI50 [6]	GI50 [7]	GI50 [8]	GI50 [9]	GI50 [10]
COC(=O)C(=O)C(C(=O)C(=O)Nc1ccc(C)cc1C)c1nc2ccccc2[nH]c1=O (centres undefined)	> 100 µM	> 100 µM	> 100 µM	98.5 µM	60 µM	> 100 µM	> 100 µM	> 100 µM	> 100 µM	> 100 µM										
COc1ccc(-c2cc3c(nn2)-c2ccccc2C3=O)cc1	> 100 µM	> 100 µM	> 100 µM	> 100 µM	> 100 µM	> 100 µM	> 100 µM	> 100 µM	> 100 µM	> 100 µM	> 100 µM	> 100 µM	> 100 µM	> 100 µM	> 100 µM	32.8 µM	47.7 µM	> 100 µM	> 100 µM	> 100 µM
Cn1cc(C2=C(c3cn(C)c4c(N)cccc34)C(=O)NC2=O)c2ccccc21	> 25 µM	21.3 µM	> 22.1 µM	1.98 µM	6.85 µM	21.6 µM	12.1 µM	> 25 µM	> 23.6 µM	> 25 µM	1.08 µM	4.33 µM	6.41 µM	0.59 µM	1.03 µM	3.35 µM	0.968 µM	2 µM	8.3 µM	9.53 µM
COc1ccc(S(=O)(=O)N(Cc2ccc3c(n2)C=CC(C)(C)O3)C2CCC2)cc1OC		1.05 µM	7.25 µM	0.378 µM	0.222 µM	0.0355 µM	> 37.7 µM	0.374 µM	0.266 µM	0.0209 µM	0.0196 µM	0.0145 µM	< 0.01 µM	< 0.01 µM	< 0.01 µM	< 0.01 µM	< 0.01 µM	< 0.01 µM	< 0.01 µM	< 0.01 µM
Cn1cc(-c2csc(-c3cccc(F)c3)n2)c2cccnc21	34.7 µM	36 µM	31.5 µM	30.1 µM	34.4 µM	34.6 µM	29.5 µM	30.4 µM	78.6 µM	45.5 µM	17 µM	17.3 µM	14.8 µM	15.5 µM	16 µM	11.7 µM	16 µM	16.1 µM	27.6 µM	17.6 µM
COc1cccc(NCc2nnc(Nc3ccc(Cl)cc3)c3ccccc23)c1	7.14 µM	6.74 µM	11.8 µM	6.56 µM	6.11 µM	7.57 µM	6.52 µM	7.62 µM	17.6 µM	6.23 µM	2.69 µM	1.22 µM	3.38 µM	3.07 µM	2.16 µM	1.1 µM	0.131 µM	2.22 µM	1.33 µM	1.22 µM
O=C1C2=C(CC3C(C2)C3(Br)Br)C(=O)C2=C1CC1C(C2)C1(Br)Br (centres undefined)	> 100 µM	> 100 µM	> 100 µM	> 100 µM	> 100 µM	> 100 µM	> 100 µM	> 100 µM	> 100 µM	> 100 µM										
Cc1cccc(N2C(=O)C(Cl)=C(Cl)C2=O)c1	> 100 µM	> 100 µM	> 100 µM	> 100 µM	30.7 µM	> 75.8 µM	> 100 µM	> 87.5 µM	> 71.7 µM	> 59.4 µM										
CSc1nc(NC2OC(COC(C)=O)C(OC(C)=O)C(OC(C)=O)C2OC(C)=O)c2c(OC(C)=O)c(C)c(=O)oc2n1 (centres undefined)	> 100 µM	> 100 µM	> 100 µM	> 100 µM	> 100 µM	> 100 µM	> 100 µM	> 100 µM	> 100 µM	> 100 µM										
O=C(CCCSc1nc(-c2ccc(Cl)cc2)cc(-c2ccc(Cl)cc2)n1)NO	4.11 µM	10.4 µM	9.01 µM	4.93 µM	1.86 µM	> 100 µM	11.3 µM	13.1 µM	14.1 µM	11.6 µM	0.44 µM	1.63 µM	1.42 µM	1.26 µM	0.347 µM	0.76 µM	1.96 µM	0.971 µM	0.603 µM	2.25 µM
CC12CCCC(CC(=O)c3[nH]c4ccccc4c31)C2 (centres undefined)	19.7 µM	> 63.1 µM	> 100 µM	5.75 µM	4.88 µM	40.9 µM	> 54 µM	18.4 µM	> 90.8 µM	35.6 µM	1.58 µM	2.07 µM	2.82 µM	0.698 µM	0.629 µM	0.492 µM	0.641 µM	0.879 µM	9.74 µM	0.916 µM
N#Cc1cnsc1	> 100 µM	> 100 µM	> 100 µM	> 100 µM	> 100 µM	> 100 µM	> 100 µM	> 100 µM	> 100 µM	> 100 µM										
CCCNC(=S)N/N=C(\C)c1ccccn1	4.92 µM	> 100 µM	> 100 µM	> 30.9 µM	6.55 µM	0.816 µM	> 100 µM	> 26 µM	0.0441 µM	> 100 µM	0.242 µM	0.022 µM	0.529 µM	0.847 µM	0.847 µM	0.0524 µM	0.426 µM	0.959 µM	< 0.01 µM	2.11 µM
NC1C2(CCCCCC2)NC(=O)C12CCCCCC2 (centres undefined)	> 100 µM	> 100 µM	> 100 µM	> 100 µM	> 100 µM	> 100 µM	> 100 µM	> 100 µM	> 100 µM	> 100 µM										
COc1ccc(C2CC(=O)c3c(O)c(OC)c(OC)c(OC)c3O2)c(O)c1 (centres undefined)	10.9 µM	18.6 µM	93.4 µM	9.39 µM	25.5 µM	29.6 µM	15.7 µM	> 100 µM	66.9 µM	26.7 µM	0.0637 µM	0.392 µM	5.57 µM	0.14 µM	0.243 µM	1.65 µM	0.0693 µM	0.839 µM	1.18 µM	13.1 µM
